# Read-outs that look alike come from different tables or passages of the source.
# How the values were obtained:
# Galectin-1 = Galectin-1 (Homo sapiens, UniProt P09382); experiment: fluorescence anisotropy assay, compound as inhibitor of galectin / fluorescein tagged saccharide probe interaction; assay type: binding
# Text: (§1) Anal. Biochem. 334: 36-47, (Sörme et al., 2004) and Monovalent interactions of Galectin-1 By Salomonsson, Emma; Larumbe, Amaia; Tejler, Johan; Tullberg, Erik; Rydberg, Hanna; Sundin, Anders; Khabut, Areej; Frejd, Torbjorn; Lobsanov, Yuri D.; Rini, James M.; et al, From Biochemistry (2010), 49(44), 9518-9532, (Salomonsson et al., 2010).
# Galectin-3 = Galectin-3 (Homo sapiens, UniProt P17931); experiment: as above; assay type: binding
# Text: as §1
# Galectin-3, sequence (P17931 whole entry): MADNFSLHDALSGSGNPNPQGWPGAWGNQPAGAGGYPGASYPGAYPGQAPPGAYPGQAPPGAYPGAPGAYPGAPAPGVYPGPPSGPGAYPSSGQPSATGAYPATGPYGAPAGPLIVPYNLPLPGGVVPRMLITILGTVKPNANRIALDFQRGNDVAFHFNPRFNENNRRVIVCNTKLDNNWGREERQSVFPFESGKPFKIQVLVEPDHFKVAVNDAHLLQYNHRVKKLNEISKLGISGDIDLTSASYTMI
# Galectin-1, sequence (P09382 whole entry): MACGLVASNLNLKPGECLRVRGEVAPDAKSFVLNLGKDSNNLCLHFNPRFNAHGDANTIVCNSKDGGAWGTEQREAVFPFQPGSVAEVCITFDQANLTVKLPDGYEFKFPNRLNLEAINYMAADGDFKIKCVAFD
Kd (Galectin-1) [nM],Kd (Galectin-3) [nM],SMILES,Kd (Galectin-1; read-out: Galectin-1 Kd) [nM]
28,3200,"CO[C@@H]1[C@@H](n2cc(-c3csc(N)n3)nn2)[C@@H](O)[C@@H](CO)O[C@@H]1Sc1cc(Cl)cnc1-c1ncco1 [Example 27, 5-Chloro-2-(oxazol-2-yl)pyridin-3-yl 3-[4-(2-aminothiazol-4-yl)-1H-1,2,3-triazol-1-yl]-3-deoxy-2-O-methyl-1-thio-α-D-galactopyranoside]",
48,8700,"CO[C@@H]1[C@@H](n2cc(-c3csc(N)n3)nn2)[C@@H](O)[C@@H](CO)O[C@@H]1Sc1cc(Cl)cnc1-c1nccs1 [Example 29, 5-Chloro-2-(thiazol-2-yl)pyridin-3-yl 3-[4-(2-aminothiazol-4-yl)-1H-1,2,3-triazol-1-yl]-3-deoxy-2-O-methyl-1-thio-α-D-galactopyranoside]",
120,2500,"CO[C@@H]1[C@@H](n2cc(-c3csc(N)n3)nn2)[C@@H](O)[C@@H](CO)O[C@@H]1Sc1ccc(C(F)(F)F)c(Cl)c1 [Example 30, 3-Chloro-4-(trifluoromethyl)phenyl 3-[4-(2-aminothiazol-4-yl)-1H-1,2,3-triazol-1-yl]-3-deoxy-2-O-methyl-1-thio-α-D-galactopyranoside]",
200,5600,"CO[C@@H]1[C@@H](n2cc(-c3csc(N)n3)nn2)[C@@H](O)[C@@H](CO)O[C@@H]1Sc1cccc(Cl)c1 [Example 31, 3-Chlorophenyl 3-[4-(2-aminothiazol-4-yl)-1H-1,2,3-triazol-1-yl]-3-deoxy-2-O-methyl-1-thio-α-D-galactopyranoside]",
500,3000,Cc1sc(N)nc1-c1cn(C2C(O)[C@@H](Sc3cnc(C(F)(F)F)c(Br)c3)OC(CO)[C@@H]2O)nn1 (stereo partly drawn) [Example 33],
53,1400,"CO[C@@H]1[C@@H](n2cc(-c3nc(C)cs3)nn2)[C@@H](O)[C@@H](CO)O[C@@H]1Sc1cc(Br)cnc1C#N [Example 34, 5-Bromo-2-cyanopyridin-3-yl 3-deoxy-3-[4-(4-methylthiazol-2-yl)-1H-1,2,3-triazol-1-yl]-2-O-methyl-1-thio-α-D-galactopyranoside]",
490,9000,"CO[C@@H]1[C@@H](n2cc(-c3nc(C)cs3)nn2)[C@@H](O)[C@@H](CO)O[C@@H]1Sc1cc(C)cnc1C#N [Example 35, 2-Cyano-5-methylpyridin-3-yl 3-deoxy-3-[4-(4-methylthiazol-2-yl)-1H-1,2,3-triazol-1-yl]-2-O-methyl-1-thio-α-D-galactopyranoside]",
190,700,"CO[C@@H]1[C@@H](n2cc(-c3nc(Cl)cs3)nn2)[C@@H](O)[C@@H](CO)O[C@@H]1Sc1cc(C)cnc1C#N [Example 36, 2-Cyano-5-methylpyridin-3-yl 3-[4-(4-chlorothiazol-2-yl)-1H-1,2,3-triazol-1-yl]-3-deoxy-2-O-methyl-1-thio-α-D-galactopyranoside]",
200,390,"C#Cc1cncc(S[C@H]2O[C@H](CO)[C@H](O)[C@H](n3cc(-c4nc(Cl)cs4)nn3)[C@H]2OC)c1 [Example 37, 5-Ethynylpyridin-3-yl 3-[4-(4-chlorothiazol-2-yl)-1H-1,2,3-triazol-1-yl]-3-deoxy-2-O-methyl-1-thio-α-D-galactopyranoside]",
100,6100,"COC1C(n2cc(-c3csc(N)n3)nn2)[C@@H](O)C(CO)O[C@@H]1Sc1cc(Cl)cnc1N1CC2(COC2)C1 (stereo partly drawn) [Example 38, 5-Chloro-2-{N-(2-oxa)-6-azaspiro[3.3]heptanyl}-pyridin-3-yl 3-[4-(2-aminothiazol-4-yl)-1H-1,2,3-triazol-1-yl]-3-deoxy-2-O-methyl-1-thio-α-D-galactopyranoside]",
71,3600,"CO[C@@H]1[C@@H](n2cc(-c3csc(N)n3)nn2)[C@@H](O)[C@@H](CO)O[C@@H]1Sc1ccc(C#N)c(Cl)c1 [Example 39, 3-Chloro-4-cyanophenyl 3-[4-(2-aminothiazol-4-yl)-1H-1,2,3-triazol-1-yl]-3-deoxy-2-O-methyl-1-thio-α-D-galactopyranoside]",
240,10700,"CO[C@@H]1[C@@H](n2cc(-c3csc(N)n3)nn2)[C@@H](O)[C@@H](CO)O[C@@H]1Sc1cncc(C#N)c1 [Example 40, 5-Cyanopyridin-3yl 3-[4-(2-aminothiazol-4-yl)-1H-1,2,3-triazol-1-yl]-3-deoxy-2-O-methyl-1-thio-α-D-galactopyranoside]",
130,9300,"OC[C@H]1O[C@H](Sc2cc(Cl)c(F)c(Cl)c2)C[C@@H](n2cc(-c3csc(O)n3)nn2)[C@H]1O [Example 41, 3,5-Dichloro-4-fluorophenyl 2,3-dideoxy-3-[4-(2-hydroxythiazol-4-yl)-1H-1,2,3-triazol-1-yl]-1-thio-α-D-galactopyranoside]",
730,10300,"N#Cc1ccc(S[C@@H]2C[C@@H](n3cc(-c4csc(N)n4)nn3)[C@@H](O)[C@@H](CO)O2)cc1Cl [Example 42, 3-Chloro-4-cyanophenyl 3-[4-(2-aminothiazol-4-yl)-1H-1,2,3-triazol-1-yl]-2,3-dideoxy-1-thio-α-D-galactopyranoside]",
130,1200,"N#Cc1ccc(Cl)cc1S[C@@H]1C[C@@H](n2cc(-c3nc(Cl)cs3)nn2)[C@@H](O)[C@@H](CO)O1 [Example 43, 5-Chloro-2-cyanophenyl 3-[4-(4-chlorothiazol-2-yl)-1H-1,2,3-triazol-1-yl]-2,3-dideoxy-1-thio-α-D-galactopyranoside]",
360,16700,"CO[C@@H]1[C@@H](n2cc(-c3csc(N)n3)nn2)[C@@H](O)[C@@H](CO)O[C@@H]1Sc1cnc(C(F)(F)F)c(C#N)c1 [Example 44, 3-Cyano-2-(trifluoromethyl)pyridin-5-yl 3-[4-(2-aminothiazol-4-yl)-1H-1,2,3-triazol-1-yl]-3-deoxy-2-O-methyl-1-thio-α-D-galactopyranoside]",
22,74,"COC1C(n2cc(-c3nc(Cl)cs3)nn2)[C@@H](O)C(CO)O[C@@H]1Sc1cc(Cl)cnc1C(=O)N1CCC1 (stereo partly drawn) [Example 45, 5-Chloro-2-(N-azetidinylcarbamoyl)-3-pyridinyl 3-[4-(4-chlorothiazol-2-yl)-1H-1,2,3-triazol-1-yl]-3-deoxy-2-O-methyl-1-thio-α-D-galactopyranoside]",
35,2530,"CO[C@@H]1[C@@H](n2cc(-c3nc(C)cs3)nn2)[C@@H](O)[C@@H](CO)O[C@@H]1Sc1cc(Cl)cnc1-c1ccccn1 [Example 46, 5-Chloro-2-(pyridin-2-yl)pyridin-3-yl 3-deoxy-3-[4-(4-methylthiazol-2-yl)-1H-1,2,3-triazol-1-yl]-2-O-methyl-1-thio-α-D-galactopyranoside]",
570,3200,"C#Cc1cncc(S[C@H]2O[C@H](CO)[C@H](O)[C@H](n3cc(-c4nccs4)nn3)[C@H]2OC)c1 [Example 47, 5-Ethynylpyridin-3-yl 3-deoxy-2-O-methyl-3-[4-(2-thiazolyl)-1H-1,2,3-triazol-1-yl]-1-thio-α-D-galactopyranoside]",
150,420,"OC[C@H]1O[C@H](Sc2cncc(Cl)c2)[C@H](O)[C@@H](n2cc(-c3nc(Cl)cs3)nn2)[C@H]1O [Example 48, 5-Chloropyridin-3-yl 3-[4-(4-chlorothiazol-2-yl)-1H-1,2,3-triazol-1-yl]-3-deoxy-1-thio-α-D-galactopyranoside]",
150,190,"OC[C@H]1O[C@H](Sc2cncc(Br)c2)[C@H](O)[C@@H](n2cc(-c3nc(Cl)cs3)nn2)[C@H]1O [Example 49, 5-Bromopyridin-3-yl 3-[4-(4-chlorothiazol-2-yl)-1H-1,2,3-triazol-1-yl]-3-deoxy-1-thio-α-D-galactopyranoside]",
110,230,"N#Cc1ccc(Cl)cc1S[C@H]1O[C@H](CO)[C@H](O)[C@H](n2cc(-c3nc(Cl)cs3)nn2)[C@H]1O [Example 50, 5-Chloro-2-cyanophenyl 3-[4-(4-chlorothiazol-2-yl)-1H-1,2,3-triazol-1-yl]-3-deoxy-1-thio-α-D-galactopyranoside]",
250,370,"N#Cc1cc(Cl)cc(S[C@H]2O[C@H](CO)[C@H](O)[C@H](n3cc(-c4nc(Cl)cs4)nn3)[C@H]2O)c1 [Example 51, 3-Chloro-5-cyanophenyl 3-[4-(4-chlorothiazol-2-yl)-1H-1,2,3-triazol-1-yl]-3-deoxy-1-thio-α-D-galactopyranoside]",
170,410,"N#Cc1ccc(S[C@H]2O[C@H](CO)[C@H](O)[C@H](n3cc(-c4nc(Cl)cs4)nn3)[C@H]2O)cc1Cl [Example 52, 3-Chloro-4-cyanophenyl 3-[4-(4-chlorothiazol-2-yl)-1H-1,2,3-triazol-1-yl]-3-deoxy-1-thio-α-D-galactopyranoside]",
54,340,"CO[C@@H]1[C@@H](n2cc(-c3nc(Cl)cs3)nn2)[C@@H](O)[C@@H](CO)O[C@@H]1Sc1cncc(Cl)c1 [Example 53, 5-Chloropyridin-3-yl 3-[4-(4-chlorothiazol-2-yl)-1H-1,2,3-triazol-1-yl]-3-deoxy-2-O-methyl-1-thio-α-D-galactopyranoside]",
90,190,"CO[C@@H]1[C@@H](n2cc(-c3nc(Cl)cs3)nn2)[C@@H](O)[C@@H](CO)O[C@@H]1Sc1cncc(Br)c1 [Example 54, 5-Bromopyridin-3-yl 3-[4-(4-chlorothiazol-2-yl)-1H-1,2,3-triazol-1-yl]-3-deoxy-2-O-methyl-1-thio-α-D-galactopyranoside]",

SMILES,Kd (Galectin-1) [nM],Kd (Galectin-3) [nM],Kd (Galectin-1; read-out: Galectin-1 Kd) [nM]
"COC1C(n2cc(-c3csc(N)n3)nn2)[C@@H](O)C(CO)O[C@@H]1Sc1ccc(Cl)c(Cl)c1 (stereo partly drawn) [Example 28, 3,4-Dichlorphenyl 3-[4-(2-aminothiazol-4-yl)-1H-1,2,3-triazol-1-yl]-3-deoxy-2-O-methyl-1-thio-α-D-galactopyranoside]",,2400,63

# From US12441754B2, “Galactoside inhibitor of galectins” (GALECTO BIOTECH AB, priority 2019, dated 2025)
